Results published in patent US3969418A, “(4-Biphenylyl)-butenols” (Boehringer Ingelheim GmbH, priority 1972, dated 1976).

Key:
[1] = system: Kaolin-induced edema of the hind paw of the rat; assay: Kaolin-induced edema of the hind paw of the rat (antiexudative effect); format: in vivo, rat (male FW 49); details: per os, 30 min before edema, measured 5 h after, dose for 35% reduction of swelling, by graphical extrapolation
Procedure: (§1) The compounds were tested with respect to their antiexudative effect on the kaolin-induced edema and the carrageenin-induced edema of the hind paw of the rat and with respect to their acute toxicity after oral administration to rats, in comparison with phenylbutazone, a compound with known antiphlogistic activities.
(§2) a. Kaolin-induced edema of the hind paw of the rat
(§3) The kaolin edema was induced according to the method given by Hillebrecht [Arzneimittel-Forsch. 4, 607 (1954)] by subplantary injection of 0.05 ml of a 10% suspension of kaolin in a 0.85% sodium chloride solution. Measurement of the volume of the paws was effected using the technique of Doepfner and Cerletti [Int. Arch. Allergy Immunol. 12, 89 (1958)].
(§4) Male FW 49 rats having an average weight of 120 to 150 gm were fed with the test compounds 30 minutes before inducing the edema by means of an oesophageal tube. 5 hours after the provocation of the edema the averaged values of the swelling caused in the rats treated with the test compounds were compared with values measured on control animals. By graphical extrapolation, the dose leading to a 35% reduction of the swelling (ED35) was calculated from the presentage reduction values measured by the administration of different doses.

in vivo = details: rat; for LD50 at 336 h: in vivo, po
Excerpt: The substances were fed as a trituration in Tylose.
The calculation of the LD50 values was effected, as far as possible according to the method of Litchfield and Wilcoxon, based on the percentage of animals which died within 14 days after administration of the different doses.

[2] = Therapeutic index (LD50/ED35); details: in vivo; oral LD50 / average ED35, rat; read-out: Therapeutical Index, ratio between toxic and antiexudative activity LD50/ED35
Procedure: (§5) The therapeutical index (a measure for the therapeutic usefulness) was calculated as the quotient of the oral LD50 and of the ED35 value calculated from the anti-exudative effect (average value from the kaolin-edema and the carrageenin-edema).

[3] = system: Carrageenin-induced edema of the hind paw of the rat; assay: Carrageenin-induced edema of the hind paw of the rat (antiexudative effect); format: in vivo, rat (male FW 49); details: per os, 60 min before edema, measured 3 h after, dose for 35% reduction of swelling
Procedure: as §1, §4
(§6) b. Carrageenin-induced edema of the hind paw of the rat
The provocation of the carrageenin edema was effected according to the method of Winter et al [Proc. Soc. exp. Biol. Med. 111, 544 (1962)] by subplantary injection of 0.05 ml of a 1% solution of carrageenin in a 0.85% solution of sodium chloride. The test compounds were administered 60 minutes before the provocation of the edema.
For the calculation of the reductive effect on the edema the values measured 3 hours after the provocation of the edema were used. All the other details were the same as described above in the case of the kaolin-induced edema.

[4] = system: kaolin-induced edema and carrageenin-induced edema of the hind paw of the rat; assay: Antiphlogistic (antiexudative) activity, kaolin and carrageenin edema together; format: in vivo, rat (male FW 49); details: average value from kaolin edema and carrageenin edema, per os
Procedure: The above pharmacodynamic activity of the compounds of the present invention, namely their antiphlogistic activity and their toxicity, were ascertained in the manner described below.
as §1, §2, §3, §4, §6
The provocation of the carrageenin edema was effected according to the method of Winter et al [Proc. Soc. exp. […]
For the calculation of the reductive effect on the edema the values measured 3 hours after the provocation of the edema were used. […]
as §5

| Structure (SMILES) | ED35 [1] [mg/kg] | LD50 at 336 h (in vivo) [mg/kg] | selectivity ratio [2] | ED35 [3] [mg/kg] | ED35 [4] [mg/kg] | animals died after application (in vivo; 2000 mgm/kg per os) |
| --- | --- | --- | --- | --- | --- | --- |
| OCCC=Cc1ccc(-c2ccccc2F)cc1 [A, 4-(2"-fluoro-4'-biphenylyl)-3-buten-1-ol] | 44 | 1770 | 56.2 | 19 | 31.5 | – |
| CCCCC1C(=O)N(c2ccccc2)N(c2ccccc2)C1=O [Phenylbutazone, phenylbutazone, reference compound] | 58 | – | – | 69 | 63.5 | – |
| OCCC=Cc1ccc(-c2ccccc2)cc1 [B, 4-(4'-biphenylyl)-3-buten-1-ol] | 42 | > 2000 | > 43.5 | 50 | 46 | 0 out of 10 animals died |
